Reference: article PMC7394005, “Assessing the Selectivity of FXR, LXRs, CAR, and RORγ Pharmaceutical Ligands With Reporter Cell Lines” (Frontiers in Pharmacology, 2020)
Read-outs that look alike come from different tables or passages of the source.

Experiments:
Assay type in all cases: cell-based
[1] = molecular target: T1, human CAR (+ APYLT) (Homo sapiens, UniProt Q14994, INS270APYLT); experiment: HG5LN GAL4-CAR (+APYLT) reporter cell line, agonist mode; settings: for EC50: HG5LN CAR + APYLT cells, tested alone, NE = No effect
T1 construct: CAR (M76-S348); expressed in transfected cells; host or cells: HG5LN (HeLa cells carrying the (GAL4RE)5-βGlob-Luc-SVNeo reporter)
T1 sequence (Q14994 47-324 isoform Q14994-6): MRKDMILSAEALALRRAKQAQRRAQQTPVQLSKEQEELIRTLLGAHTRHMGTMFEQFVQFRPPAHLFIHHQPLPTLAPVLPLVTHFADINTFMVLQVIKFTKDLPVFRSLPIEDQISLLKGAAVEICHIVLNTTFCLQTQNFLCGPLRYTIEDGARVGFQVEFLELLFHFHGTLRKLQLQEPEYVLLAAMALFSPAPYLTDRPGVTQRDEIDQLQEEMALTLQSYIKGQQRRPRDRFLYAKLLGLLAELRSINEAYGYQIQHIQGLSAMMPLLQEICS
Description: (§1) To construct GAL4-NR chimeras, individual LBDs of human FXR (R193-Q486), LXRα (A187-E447), LXRβ (G199-E461), CAR (M76-S348), and RORγ (S97-K518) were amplified by PCR with primers containing XhoI and SacI restriction sites (FXR), XhoI and BamHI (LXRs, CAR, RORγ) and inserted in pSG5-GAL4(DBD)-puromycin plasmid. To construct GAL4-CAR (+ APYLT) (M76-S353), the five amino acids APYLT were inserted by overlap extension PCR between amino acids P270 and D271 of CAR.
(§2) To characterize the specificity of chemicals for human FXR, LXRα, LXRβ, CAR and RORγ, we established in a similar manner HG5LN FXR, LXRα, LXRβ, CAR WT, CAR (APYLT) and RORγ reporter cell lines. […] These cells were stably transfected by pSG5-GAL4 (DBD)-NRs (LBD)-puromycin plasmid and selected in presence of 0.5 µg/ml puromycin. […] From each HG5LN NR cells, 5 to 10 clones were chosen for their ligand inducibility of luciferase expression. […] The most inducible clones were expanded and rechecked for inducibility and aliquots were frozen at different passages. One clone per receptor was maintained in culture and used for ligand screening. HG5LN cells were cultured in Dulbecco’s modified Eagle’s medium (DMEM): Nutrient Mixture F-12 (DMEM/F-12) containing phenol red and 1 g/l glucose and supplemented with 5% fetal bovine serum, 100 units/ml of penicillin, 100 µg/ml of streptomycin and 1 mg/ml geneticin, in 5% CO2 humidified atmosphere at 37°C. Stably transfected cell lines derived from HG5LN cells were cultured in the same culture medium supplemented with 0.5 µg/ml puromycin.
(§3) Individual reporter cell lines were seeded at a density of 40,000 cells per well in 96-well white opaque tissue culture plates (Greiner CellStar) in Dulbecco’s Modified Eagle Medium: Nutrient Mixture F-12 (DMEM/F-12) without phenol red and 1 g/l glucose and supplemented with 5% stripped fetal bovine serum, 100 units/ml of penicillin, 100 µg/ml of streptomycin (test medium). Chemicals to be tested were added 24h later, and cells were incubated at 37°C for 16h. Experiments were performed in quadruplicates. At the end of the incubation period, culture medium was replaced with test medium containing 0.3 mM luciferin solution. Luciferase activity was measured for 2s in intact living cells after 10 min stabilization using a Micro Beta Wallac luminometer (PerkinElmer). EC50 values were calculated using GraphPad Prism (GraphPad Software Inc).
(§4) Chemicals tested for agonism on FXR, LXRs, CAR (+ APYLT), PXR, and antagonism on CAR and RORγ were tested alone, without addition of any other ligand.
(§5) In the transactivation assay, each compound was tested at various concentrations in three independent experiments at least. For each experiment, tests were performed in quadruplicates for each concentration, and data are expressed by means values with standard deviations. Individual agonist dose–response curves, in the absence and presence of antagonist, were fitted using the sigmoid dose-response function of a graphics and statistics software program (GraphPad Prism, version 5.0). EC50 (effective concentration for half-maximal luciferase activity) and IC50 (half-maximal inhibitory concentration) values were calculated from equations used to fit the data in this graphic software. Transactivation data are presented as EC50 and IC50 values for each compound tested. To analyze significances, we compared individual compound treatments with controls using one-way analysis of variance (ANOVA) with the help of GraphPad Prism software.

[2] = molecular target: T2, human RORγ (Homo sapiens, UniProt P51449); experiment: HG5LN GAL4-RORγ reporter cell line, agonist mode in presence of SR2211; settings: in presence of SR2211 1 mM, NE = No effect; for EC50: read-out: RORγ (SR2211 1 mM) EC50
T2 construct: RORγ (S97-K518); expressed in transfected cells; host or cells: HG5LN (HeLa cells carrying the (GAL4RE)5-βGlob-Luc-SVNeo reporter)
T2 sequence (P51449 97-518): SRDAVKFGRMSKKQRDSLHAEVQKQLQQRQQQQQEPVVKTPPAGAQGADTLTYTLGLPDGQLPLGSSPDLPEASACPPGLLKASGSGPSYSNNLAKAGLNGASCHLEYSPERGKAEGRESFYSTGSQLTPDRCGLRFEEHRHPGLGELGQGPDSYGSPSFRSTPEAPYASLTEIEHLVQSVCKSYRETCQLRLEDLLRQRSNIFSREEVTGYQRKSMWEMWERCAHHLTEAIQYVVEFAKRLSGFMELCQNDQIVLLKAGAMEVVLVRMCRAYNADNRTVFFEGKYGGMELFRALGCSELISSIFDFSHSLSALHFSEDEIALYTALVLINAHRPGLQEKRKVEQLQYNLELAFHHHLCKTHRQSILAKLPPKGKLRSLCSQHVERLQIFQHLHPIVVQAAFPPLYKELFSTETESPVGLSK
Description: as §1, §2, §3, §4, §5

[3] = molecular target: T3, human LXRβ (Homo sapiens, UniProt P55055); experiment: HG5LN GAL4-LXRβ reporter cell line, agonist mode; settings: for LXRβ % max act: maximal luciferase activity at 10^-5 M (10^-6 M for * and 3 10^-6 M for ** compounds), 100% = 1 µM T0901317, DMSO 9 ± 2
T3 construct: LXRβ (G199-E461); expressed in transfected cells; host or cells: HG5LN (HeLa cells carrying the (GAL4RE)5-βGlob-Luc-SVNeo reporter)
T3 sequence (P55055 198-460 limits assumed): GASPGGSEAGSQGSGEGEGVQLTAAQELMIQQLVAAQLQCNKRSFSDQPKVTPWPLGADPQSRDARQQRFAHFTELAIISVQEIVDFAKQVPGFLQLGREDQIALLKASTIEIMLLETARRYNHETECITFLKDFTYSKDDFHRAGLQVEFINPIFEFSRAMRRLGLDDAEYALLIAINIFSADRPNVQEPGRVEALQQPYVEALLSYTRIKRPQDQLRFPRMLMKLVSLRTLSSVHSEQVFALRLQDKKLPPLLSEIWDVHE
Description: as §1, §2, §3, §4, §5

[4] = HG5LN GAL4-LXRβ cells, tested alone, NE = No effect, read-out: LXRβ EC50

| Compound | EC50 [1] | EC50 [2] | EC50 [3, 4] | Emax at 10 µM ([1]; HG5LN, read-out: CAR (APYLT) % max act) | LXRβ specificity (fold, over LXRα) ([3]; from EC50 values on LXRα and LXRβ) | EC50 [3] | LXRβ % max act ([3]; NE = No effect) | RORγ (SR2211 1 mM) % max act ([2]; 100% = constitutive activity, DMSO 56 ± 5, at 10^-5 M (10^-6 M *, 3 10^-6 M **)) |
| --- | --- | --- | --- | --- | --- | --- | --- | --- |
| Cc1oc2ccccc2c1CNC(=O)NCc1cccs1 [S07662] | > 10 µM | > 10 µM | > 10 µM |  |  |  |  |  |
| CCOC(=O)Nc1ccc2c(c1)N(C(=O)CN(CC)CC)c1ccccc1CC2 [CINPA1] | > 10 µM | > 10 µM | > 10 µM |  |  |  |  |  |
| COC(=O)/C=C/c1cccc(N(Cc2ccc(-c3ccc(N(C)C)cc3)cc2)C(=O)C2CCCCC2)c1 [Feraxamine] | > 10 µM | > 10 µM | > 10 µM |  |  |  |  |  |
| Clc1ccccc1C(c1ccccc1)(c1ccccc1)n1ccnc1 [Clotrimazole, clotrimazole] |  | > 10 µM | > 10 µM | 23% |  |  |  |  |
| O=C(Nc1ccc(C(O)(C(F)(F)F)C(F)(F)F)cc1)c1ccccc1Cl [SR0987] | > 10 µM |  | > 10 µM |  |  |  |  |  |
| Fc1ccc(-c2c3cccc(C(F)(F)F)c3nn2Cc2ccc(F)cc2Cl)cc1 [WAY252623] | > 10 µM | > 10 µM |  |  |  | 0.321 ± 0.071 µM | 72% |  |
| Clc1ccc(-c2nc3sccn3c2/C=N/OCc2ccc(Cl)c(Cl)c2)cc1 [CITCO] |  | > 10 µM | > 10 µM |  |  |  |  |  |
| CC(C)(C)c1nc(-c2cccc(NS(=O)(=O)c3c(F)cccc3F)c2F)c(-c2ccnc(N)n2)s1 [Dabrafenib] | > 10 µM | > 10 µM | > 10 µM |  |  |  |  |  |
| CCOC(=O)c1ccc(CN(Cc2ccc(-c3cccc(S(C)(=O)=O)c3)cc2)S(=O)(=O)c2c(C)cc(C)cc2C)o1 [SR9238] | > 10 µM | > 10 µM |  |  |  |  |  |  |
| O=C(Nc1ccc(C(O)(C(F)(F)F)C(F)(F)F)cc1)c1ccc(C(F)(F)F)cc1 [SR1078] | > 10 µM | 2.09 ± 0.131 µM | > 10 µM |  |  |  |  | 75% |
| SPA70 | > 10 µM | > 10 µM | > 10 µM |  |  |  |  |  |
| Cc1cc(C)c(S(=O)(=O)N(Cc2ccc(-c3cccc(S(C)(=O)=O)c3)cc2)Cc2ccc(C(F)(F)F)o2)c(C)c1 [GSK2033] | > 10 µM | > 10 µM |  |  |  |  |  |  |

More lines, main results first:

| EC50 [1] | EC50 [2] | EC50 [3, 4] | Emax at 10 µM ([1]; HG5LN, read-out: CAR (APYLT) % max act) | LXRβ specificity (fold, over LXRα) ([3]; from EC50 values on LXRα and LXRβ) | Compound | EC50 [3] | LXRβ % max act ([3]; NE = No effect) | RORγ (SR2211 1 mM) % max act ([2]; 100% = constitutive activity, DMSO 56 ± 5, at 10^-5 M (10^-6 M *, 3 10^-6 M **)) |
| --- | --- | --- | --- | --- | --- | --- | --- | --- |
| > 10 µM | > 10 µM |  |  |  | Cc1cc(C)c(S(=O)(=O)N(CCc2cccc(Br)c2)Cc2ccc(-c3cccc(S(C)(=O)=O)c3)cc2)c(C)c1 [SR9243] |  |  |  |
| > 10 µM | > 10 µM | 0.015 ± 0.006 µM |  | 12 fold | O=C(O)Cc1cccc(OCCCN(Cc2cccc(C(F)(F)F)c2Cl)CC(c2ccccc2)c2ccccc2)c1 [GW3965] |  | 100% |  |
| > 10 µM | > 10 µM | > 10 µM |  |  | CC(C)c1onc(-c2c(Cl)cccc2Cl)c1COc1ccc(/C=C/c2cccc(C(=O)O)c2)c(Cl)c1 [GW4064] |  |  |  |
| > 10 µM | > 10 µM | > 10 µM |  |  | COc1cccc(Cn2cc(C(=O)Nc3ccc(C)c(S(=O)(=O)N4CCOCC4)c3)c(-c3ccc(C)cc3)n2)c1 [DY268] |  |  |  |
| > 10 µM | > 10 µM | > 10 µM |  |  | CCOP(=O)(OCC)C(=Cc1cc(C(C)(C)C)c(O)c(C(C)(C)C)c1)P(=O)(OCC)OCC [SR12813] |  |  |  |
| > 10 µM |  | > 10 µM |  |  | CC(=O)Nc1nc(C)c(S(=O)(=O)Nc2ccc(C(O)(C(F)(F)F)C(F)(F)F)cc2)s1 [SR1001] |  |  |  |
